Experimental data published in PubChem BioAssay (NCI).
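48-hour exposure; five concentrations; linearly interpolated endpoints. GI50 is the concentration that inhibits growth by half. At the TGI there is no net growth.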

Columns and labels:
Test in all cases: NCI-60 cell line screen, 48 h
[1] = system: OVCAR-5 ovarian
[2] = system: SNB-19 CNS
[3] = system: U251 CNS
[4] = system: M14 melanoma
[5] = system: HCT-116 colon
[6] = system: NCI-H460 lung
[7] = system: T-47D breast
[8] = system: SF-539 CNS
[9] = system: ACHN renal
[10] = system: 786-0 renal
[11] = system: KM12 colon
[12] = system: OVCAR-8 ovarian
[13] = system: MDA-MB-231 breast
[14] = system: SK-OV-3 ovarian
[15] = system: LOX IMVI melanoma
[16] = system: A498 renal
[17] = system: SW-620 colon
[18] = system: HT29 colon
[19] = system: BT-549 breast
[20] = system: SF-295 CNS
[21] = system: NCI-H522 lung
[22] = system: DU-145 prostate
[23] = system: SN12C renal
[24] = system: CCRF-CEM leukemia
[25] = system: MCF7 breast
[26] = system: NCI-H226 lung
[27] = system: UO-31 renal
[28] = system: A549 NSCLC
[29] = system: NCI-H23 lung
[30] = system: TK-10 renal
[31] = system: OVCAR-4 ovarian
[32] = system: OVCAR-3 ovarian
[33] = system: HCC-2998 colon
[34] = system: HOP-92 NSCLC
[35] = system: SNB-75 CNS
[36] = system: UACC-257 melanoma
[37] = system: MALME-3M melanoma
[38] = system: HCT-15 colon
[39] = system: SF-268 CNS
[40] = system: NCI/ADR-RES ovarian
[41] = system: K-562 leukemia
[42] = system: PC-3 prostate
[43] = system: CAKI-1 renal
[44] = system: SK-MEL-2 melanoma
[45] = system: SK-MEL-28 melanoma

COc1ccc(C(=O)n2nc(/C=C/c3ccc(O)c(OC)c3)cc2/C=C/c2ccc(O)c(OC)c2)cc1
GI50 [1]: 2.61 µM | TGI [1]: > 100 µM | GI50 [2]: 1.09 µM | TGI [2]: 18.8 µM | GI50 [3]: 0.597 µM | TGI [3]: 10.9 µM | GI50 [4]: 0.328 µM | TGI [4]: 1.32 µM | GI50 [5]: 0.362 µM | TGI [5]: 2.69 µM | GI50 [6]: 0.37 µM | TGI [6]: 13.3 µM | GI50 [7]: 0.737 µM | TGI [7]: 3.95 µM | GI50 [8]: 0.365 µM | TGI [8]: 2.21 µM | GI50 [9]: 0.388 µM | TGI [9]: 17.2 µM | GI50 [10]: 0.445 µM | TGI [10]: 1.84 µM | GI50 [11]: 0.387 µM | TGI [11]: 18.1 µM | GI50 [12]: 0.86 µM | TGI [12]: 13.1 µM | GI50 [13]: 0.575 µM | TGI [13]: 22.6 µM | GI50 [14]: 0.465 µM | TGI [14]: 1.8 µM | GI50 [15]: 0.467 µM | TGI [15]: 3.15 µM | GI50 [16]: 2.25 µM | TGI [16]: 7.26 µM | GI50 [17]: 0.455 µM | TGI [17]: 11.9 µM | GI50 [18]: 0.482 µM | TGI [18]: 2.24 µM | GI50 [19]: 0.466 µM | TGI [19]: 2.32 µM | GI50 [20]: 1.64 µM | TGI [20]: 6.28 µM | GI50 [21]: 0.267 µM | TGI [21]: 0.785 µM | GI50 [22]: 0.668 µM | TGI [22]: 4.56 µM | GI50 [23]: 0.635 µM | TGI [23]: 19.3 µM | GI50 [24]: 0.304 µM | TGI [24]: > 100 µM | GI50 [25]: 0.303 µM | TGI [25]: 1.57 µM | GI50 [26]: 2.06 µM | TGI [26]: 8.52 µM | GI50 [27]: 0.393 µM | TGI [27]: 3.2 µM | GI50 [28]: 1.37 µM | TGI [28]: 14 µM | GI50 [29]: 0.84 µM | TGI [29]: 4.69 µM | GI50 [30]: 1.91 µM | TGI [30]: 6.66 µM | GI50 [31]: 0.695 µM | TGI [31]: 5.44 µM | GI50 [32]: 0.449 µM | TGI [32]: 2.28 µM | GI50 [33]: 2.16 µM | TGI [33]: 9.19 µM | GI50 [34]: 0.609 µM | TGI [34]: 4.88 µM | GI50 [35]: 0.395 µM | TGI [35]: 1.64 µM | GI50 [36]: 2.03 µM | TGI [36]: 12.1 µM | GI50 [37]: 0.556 µM | TGI [37]: 3.59 µM | GI50 [38]: 0.338 µM | TGI [38]: 5.96 µM | GI50 [39]: 0.476 µM | TGI [39]: 8.42 µM | GI50 [40]: 0.492 µM | TGI [40]: 10.5 µM | GI50 [41]: 0.404 µM | TGI [41]: > 100 µM | GI50 [42]: 0.496 µM | TGI [42]: 3.78 µM | GI50 [43]: 0.452 µM | TGI [43]: 15.3 µM | GI50 [44]: 0.36 µM | TGI [44]: 0.934 µM | GI50 [45]: 0.602 µM | TGI [45]: 7.45 µM
